Measured values published in PubChem BioAssay (NCI).
“And” between values parts separate entries of the source, which are not always exact repeats. Equal entries are not always repeated.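 A five-concentration, 48-hour dose response in 96-well plates underlies each endpoint, interpolated linearly between surrounding concentrations. Abbreviation: GI50, concentration required for 50% inhibition of growth. TGI is the concentration that stops growth completely.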

Legend:
Assay in all cases: growth of human tumour cells (NCI), 48 h
[1] = system: PC-3 prostate
[2] = system: OVCAR-4 ovarian
[3] = system: NCI-H522 lung
[4] = system: LOX IMVI melanoma
[5] = system: EKVX NSCLC
[6] = system: CAKI-1 renal
[7] = system: A498 renal
[8] = system: HOP-92 NSCLC
[9] = system: HS 578T breast
[10] = system: CCRF-CEM leukemia

Compound	GI50 [1]	TGI [1]	GI50 [2]	TGI [2]	GI50 [3]	TGI [3]	GI50 [4]	TGI [4]	GI50 [5]	TGI [5]	GI50 [6]	TGI [6]	GI50 [7]	TGI [7]	GI50 [8]	TGI [8]	GI50 [9]	TGI [9]	GI50 [10]	TGI [10]
O=C1/C(=C/c2ccc(Cl)c(Cl)c2)CN(C(=O)C(Cl)Cl)C/C1=C\c1ccc(Cl)c(Cl)c1	0.0737 µM	0.712 µM	0.0743 µM	1.49 µM	0.27 µM	1.2 µM	0.0362 µM	0.136 µM	0.223 µM	0.757 µM	0.244 µM	0.826 µM	0.216 µM	0.664 µM	0.19 µM	0.541 µM	0.355 µM	3.79 µM	0.0372 µM	> 100 µM
CCCCN(CCCC)C(=O)[C@H](CC)[C@@H]1CC[C@@H](C)[C@@H]([C@H](C)[C@@H](O)[C@@H](C)C(=O)[C@H](CC)C2O[C@]3(C=C[C@@H](O)[C@]4(CC[C@@](C)([C@H]5CC[C@](O)(CC)[C@H](C)O5)O4)O3)[C@H](C)C[C@@H]2C)O1 (stereo partly specified)	2.05 µM	16.8 µM	2.85 µM	36 µM	2.08 µM	5.44 µM	1.43 µM	2.97 µM	2.32 µM	8.8 µM	1.91 µM	9.02 µM	1.99 µM	6.24 µM	1.2 µM	4.05 µM	2.32 µM	7.83 µM	3.13 µM	11.7 µM
CC1CC2C3CCC4=CC(=O)C=CC4(C)C3(F)C(O)CC2(C)C1(O)C(=O)COP(=O)(O)O (stereo unspecified)	> 500 µM	> 500 µM	> 500 µM	> 500 µM	> 500 µM	> 500 µM	> 500 µM	> 500 µM	> 500 µM	> 500 µM	> 500 µM	> 500 µM	> 500 µM	> 500 µM	> 500 µM	> 500 µM	> 500 µM	> 500 µM	> 500 µM	> 500 µM
N#CCn1c(=O)c(Oc2ccc(F)cc2F)cc2cnc(NC3CCOCC3)nc21	> 25 µM	> 25 µM	> 24 µM	> 25 µM	15 µM	> 25 µM	> 25 µM	> 25 µM	–	–	> 25 µM	> 25 µM	24.7 µM	> 25 µM	15.4 µM	> 25 µM	> 25 µM	> 25 µM	> 25 µM	> 25 µM
CC(=O)OCC1OC(n2c(=S)n(-c3ccc([N+](=O)[O-])cc3)c(=O)c3ccccc32)C(OC(C)=O)C(OC(C)=O)C1OC(C)=O (stereo unspecified)	–	39.9 µM	–	60.3 µM and 40.9 µM	–	45.3 µM and 33.7 µM	–	51.8 µM and 31.5 µM	18.9 µM and 28.2 µM	> 70 µM and 57.4 µM	25.3 µM and 35.9 µM	> 100 µM	21.9 µM	> 76.2 µM and 53.6 µM	21.9 µM	> 91.6 µM and 47.4 µM	–	68.5 µM	5.11 µM and 15.4 µM	96.9 µM and > 100 µM
COc1cnc2c(c1)C(=O)c1c-2n(CCCNC2=NCCS2)c(=O)c2cc(F)ccc12	0.208 µM	18.7 µM	0.463 µM	2.36 µM	0.0381 µM	1.28 µM	0.111 µM	1.12 µM	0.897 µM	24.5 µM	–	–	0.264 µM	1.63 µM	0.563 µM	19.7 µM	12 µM	32.4 µM	0.0402 µM	5.49 µM
